In US20190070128A1, “USE OF CANNABIDIVARIN IN THE TREATMENT OF AUTISM SPECTRUM DISORDER, ASSOCIATED DISORDERS AND SCHIZOPHRENIA” (GW Research Limited, priority 2016, published 2019):
“Also recorded” adds a separate entry of the source.

Key:
[1] = system: Ube3am-/p+ (AS) mice; experiment: rotarod test in Angelman syndrome mice; format: in vivo, mouse; conditions: chronic treatment (30 days), 20 mg/kg i.p., vs AS vehicle
Protocol: (§1) Heterozygous mice with maternal deficiency of Ube3A (Ube3am−/p+) and wild type (Ube3am+/p+) were purchased from The Jackson Laboratory (Jackson code: B6.12957-Ube3a tm1Alb/J) and maintained in a C57BL/6 background.
(§2) Drugs were dissolved in 1:1:18 ethanol:cremophor:0.9% saline, for intraperitoneal (i.p.) administration. Drug treatment was performed daily for 35 days. CBDV was administered at 20 mg/kg.
Rotarod: The rotarod test assesses balance and motor coordination of mice. Mice have been measured for the time (in seconds) of equilibrium before falling on a rotary cylinder by a magnet that, activated from the fall of the mouse on the plate, allows to record the time of permanence on the cylinder. […] The animals were analysed by 2 separate tests at 1-h interval in the same day.

[2] = system: animal models of seizure; conditions: in vivo; cited from earlier work
[3] = system: Fmr1 KO mice; experiment: novel object recognition task in Fmr1 KO mice; format: in vivo, mouse; conditions: for discrimination index level: chronic
Protocol: Fmr1 KO mice and wild type mice were obtained and housed four per cage in a temperature of 21° C.±1° C. and humidity of 55%±10% controlled environment. Food and water were available ad libitum. All experiments were performed during the light phase of a 12 hour light/dark cycle (08:00 to 20:00). Animals were handled for one week before the start of experiments. All behavioural tests were performed by researchers blind to the different experimental groups.
On day one mice were habituated for 10 minutes to the empty V-maze in which the task was to be performed. On the second day the mice went back to the maze for 10 minutes which contained two identical objects at the end of each corridor in the V-maze.
The following day the mice were placed again in the same maze for a further 10 minutes but one of the familiar objects was replaced for a novel object. The total time spent exploring the novel and familiar object was recorded. A discrimination index was calculated as the difference between the time spent exploring the novel and familiar object divided by the total time exploring the two objects. A high discrimination index (0.3-0.5) is considered to reflect memory retention for the familiar object.
Adult mice (10-15 weeks old) were treated either acutely with one dose of CBDV on […] or were treated once daily with CBDV for 7 consecutive days. Mice were evaluated in the novel object recognition task after the first and sixth day of CBDV administration. Doses of CBDV used were 2, 10, 20, 100 and 200 mg/kg.

[4] = system: Ube3am-/p+ (AS) mice; experiment: clasping test in Angelman syndrome mice; format: in vivo, mouse; conditions: chronic treatment (30 days), 20 mg/kg i.p., 10 weeks of age, vs AS vehicle
Protocol: as §1, §2
Clasping: The clasping test assesses ataxia in mice. Mice were suspended by the base of the tail and their behaviours were recorded for 30 seconds. The time for which the mice clasped their hind limbs was recorded. The time was then scored as follows: 4, 15-30 s, 3, 10-15 s, 2, 5-10 s, 1, 0-5 s and 0.0 s

[5] = system: Fmr1 KO and WT mice; experiment: susceptibility to audiogenic seizures in Fmr1 KO and WT mice (PND21); format: in vivo, mouse; conditions: for audiogenic seizures: FXS mice
Protocol: This trait was evaluated in PND21 mice after acute administration of the compounds or its vehicle, 30 min before starting the procedure. To measure audiogenic seizure sensitivity mice were placed individually into a novel environment, a glass cylinder (40 cm high, 16 cm diameter) and allowed to explore for 1 min. Next, a bell (100 dB) was rung for 30 sec and seizure activity scored according to the following scale: no response, 0; wild running, 1; clonic seizure, 2; tonic seizure, 3; status epilepticus/respiratory arrest/death, 4.
On postnatal day 21 (PND21) WT and Fmr1 KO mice were injected with CBDV (2, 10, 20 or 100 mg/kg) or vehicle, 30 min before exposure to a bell ring (100 dB). Mice exposed to this noise for 30 sec ceased from their normal exploratory behaviour and reacted with gradually to wild-running, clonic seizure, tonic seizure or death. The maximum response was annotated for each mouse as detailed in Table 2 below. A score was calculated according to the severity of the symptoms as explained in the Methods section.

[6] = WT, CBDV 2 mg/kg, n = 6, acute (30 min)
[7] = WT, CBDV 10 mg/kg, n = 5, acute (30 min)
[8] = WT, CBDV 20 mg/kg, n = 6, acute (30 min)
[9] = WT, CBDV 100 mg/kg, n = 6, acute (30 min)

## C=C(C)[C@@H]1CCC(C)=C[C@H]1c1c(O)cc(CCC)cc1O [CBDV, Cannabidivarin]
[1]
  latency to fall: reduced
[2]
  effect in animal models of seizure: effective
[3]; acute treatment, 2 mg/kg
  increase of discrimination index over vehicle treated mice: not significant
[3]; acute treatment, any of the doses
  discrimination index: no effect
[3]; chronic (once daily for 7 days), 20 and 100 mg/kg
  discrimination index over vehicle treated knockout mice: statistically significant increase
[3]; 20 mg/kg
  discrimination index level: over 0.3
[3]; 100 mg/kg
  discrimination index level: over 0.3
[4]
  clasping duration: significantly reduced
[5]; 2 mg/kg, 0.5 h
  audiogenic seizures, maximum response: Clonic seizure: 0
  audiogenic seizures, maximum response: No response: 2
  audiogenic seizures, maximum response: Tonic seizure: 2
  audiogenic seizures, maximum response: Wild running: 1
[5]; 10 mg/kg, 0.5 h
  audiogenic seizures, maximum response: Clonic seizure: 0
  audiogenic seizures, maximum response: No response: 0
  audiogenic seizures, maximum response: Tonic seizure: 2
  audiogenic seizures, maximum response: Wild running: 3
[5]; 20 mg/kg, 0.5 h
  audiogenic seizures, maximum response: Clonic seizure: 0
  audiogenic seizures, maximum response: No response: 2
  audiogenic seizures, maximum response: Tonic seizure: 2
  audiogenic seizures, maximum response: Wild running: 1
[5]; 100 mg/kg, 0.5 h
  audiogenic seizures, maximum response: Clonic seizure: 0
  audiogenic seizures, maximum response: No response: 5
  audiogenic seizures, maximum response: Tonic seizure: 0
  audiogenic seizures, maximum response: Wild running: 0
[5]; FXS (Fmr1 KO), CBDV 2 mg/kg, n = 5, acute (30 min)
  audiogenic seizures, maximum response: Death: 0
[5]; FXS (Fmr1 KO), CBDV 10 mg/kg, n = 5, acute (30 min)
  audiogenic seizures, maximum response: Death: 0
[5]; FXS (Fmr1 KO), CBDV 20 mg/kg, n = 5, acute (30 min)
  audiogenic seizures, maximum response: Death: 0
[5]; FXS (Fmr1 KO), CBDV 100 mg/kg, n = 5, acute (30 min)
  audiogenic seizures, maximum response: Death: 0
[5]; 100 mg/kg acute, 100 mg/kg
  audiogenic seizures: remained seizure free; also recorded: completely eliminate the seizures
[5]; lower doses
  audiogenic seizures: seizures of varying severity
[5]; [6]
  audiogenic seizures, maximum response: Clonic seizure: 0
  audiogenic seizures, maximum response: Death: 0
  audiogenic seizures, maximum response: No response: 6
  audiogenic seizures, maximum response: Tonic seizure: 0
  audiogenic seizures, maximum response: Wild running: 0
[5]; [7]
  audiogenic seizures, maximum response: Clonic seizure: 0
  audiogenic seizures, maximum response: Death: 0
  audiogenic seizures, maximum response: No response: 5
  audiogenic seizures, maximum response: Tonic seizure: 0
  audiogenic seizures, maximum response: Wild running: 0
[5]; [8]
  audiogenic seizures, maximum response: Clonic seizure: 0
  audiogenic seizures, maximum response: Death: 0
  audiogenic seizures, maximum response: No response: 5
  audiogenic seizures, maximum response: Tonic seizure: 0
  audiogenic seizures, maximum response: Wild running: 1
[5]; [9]
  audiogenic seizures, maximum response: Clonic seizure: 0
  audiogenic seizures, maximum response: Death: 0
  audiogenic seizures, maximum response: No response: 6
  audiogenic seizures, maximum response: Tonic seizure: 0
  audiogenic seizures, maximum response: Wild running: 0
